Data from PubChem BioAssay (NCI).
Where “and” joins values, the source holds several entries; their conditions need not be identical. Equal values may be shown once.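 Values below derive from 48-hour exposures of cells grown in 96-well plates, with endpoints linearly interpolated between the two concentrations bracketing the appropriate inhibition level. GI50 marks 50% less growth. TGI marks complete inhibition of growth.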

How the values were obtained:
Experiment in all cases: DTP human tumour cell line panel, 48 h
[1] = system: BT-549 breast
[2] = system: SNB-19 CNS
[3] = system: UACC-257 melanoma
[4] = system: COLO 205 colon
[5] = system: SN12C renal
[6] = system: A498 renal
[7] = system: SF-268 CNS
[8] = system: NCI-H23 lung
[9] = system: SF-539 CNS
[10] = system: EKVX NSCLC

Row | Structure (SMILES) | GI50 [1] | TGI [1] | GI50 [2] | TGI [2] | GI50 [3] | TGI [3] | GI50 [4] | TGI [4] | GI50 [5] | TGI [5] | GI50 [6] | TGI [6] | GI50 [7] | TGI [7] | GI50 [8] | TGI [8] | GI50 [9] | TGI [9] | TGI [10] | GI50 [10]
1 | CCN(CC)CCCC(C)N/C(c1cccc(OC)c1)=c1\c(=O)[nH]n(-c2c3ccccc3nc3ccccc23)c(=O)\c1=C(/NC(C)CCCN(CC)CC)c1cccc(OC)c1 (stereo not given) | 2.15 µM | 4.85 µM | 3.18 µM | 13 µM | 1.78 µM | 3.43 µM | 1.22 µM | 2.79 µM | 1.74 µM | 10.8 µM | 1.52 µM | 2.93 µM | 1.4 µM | 4.87 µM | 2.02 µM | 4.69 µM | 1.67 µM | 3.21 µM | – | –
2 | O=C1OC2(c3ccccc31)c1cc(I)c(O)c(I)c1Oc1c2cc(I)c(O)c1I | – | > 100 µM | – | > 100 µM | – | > 100 µM | – | > 100 µM | – | > 100 µM | – | – | – | > 100 µM | – | > 100 µM | – | > 100 µM | > 100 µM | –
3 | O=C(Nc1nc(-c2ccc(Cl)cc2)cs1)c1ccc(O)c(O)c1 | 3.49 µM | 17.9 µM | 3.82 µM | 19.7 µM | 6.29 µM | 24.3 µM | 11.4 µM | 26.5 µM | 3.67 µM | 15.7 µM | 3.37 µM | 15.5 µM | 3.54 µM | 13.9 µM | 4.27 µM | 20.3 µM | 3.92 µM | 14.8 µM | – | –
4 | COc1cc(-c2ccc(-[n+]3nc(-c4ccc([N+](=O)[O-])cc4)nn3-c3ccc([N+](=O)[O-])cc3)c(OC)c2)ccc1-[n+]1nc(-c2ccc([N+](=O)[O-])cc2)nn1-c1ccc([N+](=O)[O-])cc1 | 6.21 µM | 70.8 µM | 11.9 µM | 69.3 µM | 2.83 µM | 12 µM | – | – | 7.05 µM | 40.3 µM | 2.99 µM | 13.9 µM | 1.66 µM | 5.38 µM | 3.76 µM | 47.1 µM | 1.8 µM | 3.97 µM | – | –
5 | COc1cc(/C=C/C(=O)CC(=O)/C=C/c2ccc(OC(=O)CCNC34CC5CC(CC(C5)C3)C4)c(OC)c2)ccc1OC(=O)CCNC12CC3CC(CC(C3)C1)C2 | 2.4 µM | 7.67 µM | 4.65 µM | 18.4 µM | 4.24 µM | 19.4 µM | 4.71 µM | 20.8 µM | 3.32 µM | 17.8 µM | 4.61 µM | 17.5 µM | 3.01 µM | 13.2 µM | – | – | 2.09 µM | 4.81 µM | 12.9 µM | 4.41 µM
6 | O=C(CSc1nc2sc3c(c2c(=O)n1-c1ccccc1)CCCCC3)N/N=C/c1ccc(F)cc1 | 3.66 µM | 17.8 µM | 3.45 µM | 13.2 µM | 7.54 µM | > 100 µM | 1.58 µM | 3.64 µM | 1.99 µM | 6.9 µM | – | – | 2.14 µM | 6.57 µM | 3.29 µM | 13.9 µM | 1.85 µM | 3.53 µM | 41.7 µM | 11.3 µM
7 | Cc1cc2c(cc1C)[n+](=O)c(C(=O)c1cccs1)c(C(F)(F)F)n2[O-] | 0.565 µM | 2.53 µM | 4.61 µM and 7.76 µM | 50 µM and 52 µM | 2.4 µM and 2.61 µM | 38 µM and 6.55 µM | 5.36 µM and 4.94 µM | 41.1 µM and 22.6 µM | 1.31 µM | 6.59 µM | – | – | 1.12 µM and 0.978 µM | 4.11 µM and 3.61 µM | 6.25 µM | 19.7 µM | 1.39 µM | 7.69 µM | 3.22 µM and 4.15 µM | 0.915 µM and 1.17 µM
